Data: patent US10941157B2, “Pesticidal compositions and uses thereof” (Gilead Apollo, LLC, priority 2015, dated 2021)
≈ marks a conversion by molar mass, not a printed value.

How the values were obtained:
[1] = system: Mycosphaerella graminicola (synthetic Septoria tritici); experiment: Foliar protection test for wheat septoria leaf blotch control; format: in vivo; conditions: foliar spray on Triticum aestivum cv. WinterHawk, inoculated 1 hour after treatment, evaluated 16 days later
Phakopsora pachyrhizi = experiment: Foliar protection test for Asian soybean rust control; format: in vivo; conditions: foliar application to soybean (Glycine max AG4832), percent disease area evaluated 14 days later
Septoria tritici (St) = experiment: In vitro pathogen growth inhibition assay, St; format: cell-based; conditions: Zymoseptoria tritici, 48 h, ≥90% growth inhibition; 48 hours; vs 2% DMSO control; read-out: Compound Concentration (ppm) sufficient for ≥90% inhibition of St
Procedure, shortened: (§1)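 Value reported is the compound concentration reaching ≥90% growth inhibition, from OD readings at 24 and 48 h after blank subtraction, confirmed visually. Inoculum was spores diluted in 17% V8 medium, except Rs, using 1.5 mm mycelial plugs in ¼ PDB; actual compound concentration corrected via OD600.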

Puccinia triticina = experiment: Foliar protection test for wheat leaf rust control; format: in vivo; conditions: foliar application to wheat (Triticum aestivum cv. Winterhawk), evaluated 10 days later
[2] = system: Fusarium moniliforme (Fm); experiment: In vitro pathogen growth inhibition assay, Fm; format: cell-based; conditions: Fusarium verticillioides; ≥90% growth inhibition; 48 hours; vs 2% DMSO control; read-out: Compound Concentration (ppm) sufficient for ≥90% inhibition of Fm
Procedure, shortened: as §1

[3] = system: Phytophthora capsici (Pc); experiment: In vitro pathogen growth inhibition assay, Pc; format: cell-based; conditions: 48 h, ≥90% growth inhibition, 48 hours, vs 2% DMSO control, read-out: Compound Concentration (ppm) sufficient for ≥90% inhibition of Pc
Procedure, shortened: (§2)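 Spores of Dm, Fv and Pc were diluted in 17% V8 liquid medium; Rs used 1.5 mm mycelial plugs in ¼ PDB. Compounds from 2.5 mg/ml DMSO stocks were combined with inoculum, growth was read by OD600 at 24 and 48 h with blank subtraction, and the reported value is the concentration giving ≥90% inhibition.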

Sphaerotheca fuliginea = experiment: Foliar protection for cucumber powdery mildew control; format: in vivo; conditions: foliar spray on Cucumis sativus cv. Straight Eight, inoculated 24 hours after treatment, evaluated 7 days later
Procedure, shortened: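 Protective foliar spray on 10-day-old Straight Eight cucumbers, with S. fuliginea spores dusted from infected stock plants 24 h after treatment. Disease developed at 23–27 °C, 60% RH and a 16 h photoperiod. Leaves were rated for mildew growth after 7 days; test rates 10 ppm or below.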

Diplodia maydis (Dm) = experiment: In vitro pathogen growth inhibition assay, Dm; format: cell-based; conditions: Stenocarpella maydis, 48 h, ≥90% growth inhibition; 48 hours; vs 2% DMSO control; read-out: Compound Concentration (ppm) sufficient for ≥90% inhibition of Dm
Procedure, shortened: as §2

[4] = system: Fusarium virguliforme (Fv); experiment: In vitro pathogen growth inhibition assay, Fv; format: cell-based; conditions: ≥90% growth inhibition, 48 hours, vs 2% DMSO control, read-out: Compound Concentration (ppm) sufficient for ≥90% inhibition of Fv
Procedure, shortened: as §2

Botrtyis cinerea (Bc) = experiment: In vitro pathogen growth inhibition assay, Bc; format: cell-based; conditions: 48 h, ≥90% growth inhibition; 48 hours; vs 2% DMSO control; read-out: Compound Concentration (ppm) sufficient for ≥90% inhibition of Bc
Procedure, shortened: as §1

[5] = system: Collectotrichum graminicola (Cg); experiment: In vitro pathogen growth inhibition assay, Cg; format: cell-based; conditions: 48 h, ≥90% growth inhibition; 48 hours; vs 2% DMSO control; read-out: Compound Concentration (ppm) sufficient for ≥90% inhibition of Cg
Procedure, shortened: as §1

[6] = system: Blumeria graminis f. sp. hordei; experiment: Foliar protection test for barley powdery mildew control; format: in vivo; conditions: foliar spray on Hordeum vulgare cv. Perry, inoculated 24 hours after treatment, evaluated 7 days later
Procedure, shortened: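 Protective foliar test: compound atomized onto both leaf surfaces of 6-day-old Hordeum vulgare cv. Perry, followed after 24 h by spore-cloud inoculation from colonized untreated plants. Disease rated on leaves 7 days on, plants held at 20 to 22° C and 70% RH.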

Fusarium graminearum = format: in vivo; conditions: spray on flowering Triticum aestivum cv. Samson, inoculated 24 hours after treatment, evaluated 14 days later
Rhizoctonia solani (Rs) = experiment: In vitro pathogen growth inhibition assay, Rs (mycelial plugs); format: cell-based; conditions: Rhizoctonia solani, 48 h, ≥90% growth inhibition; mycelial plugs; 48 hours; vs 2% DMSO control; read-out: Compound Concentration (ppm) sufficient for ≥90% inhibition of Rs
Procedure, shortened: as §2

SMILES | Septoria Leaf Blotch Control at a compound concentration of 25 ppm or lower [1] | Asian Soybean Rust Control at a compound concentration of 25 ppm or lower (Phakopsora pachyrhizi) | IC90 (Septoria tritici (St)) [µg/mL] | Wheat Leaf Rust Control at a compound concentration of 10 ppm or lower (Puccinia triticina) | IC90 [2] [µg/mL] | IC90 [3] [µg/mL] | Cucumber Powdery Mildew Control at a compound concentration of 10 ppm or lower (Sphaerotheca fuliginea) | IC90 (Diplodia maydis (Dm)) [µg/mL] | IC90 [4] [µg/mL] | IC90 (Botrtyis cinerea (Bc)) [µg/mL] | IC90 [5] [µg/mL] | Barley Powdery Mildew Control at a compound concentration of 10 ppm or lower [6] | Wheat Fusarium Head Blight Control at a compound concentration of 25 ppm or lower (Fusarium graminearum) | IC90 (Rhizoctonia solani (Rs)) [µg/mL]
COc1ccc(F)cc1[C@H](Cn1c(=O)n([C@H](C)C(=O)N2CCCC2)c(=O)c2c(C)c(-n3nccn3)sc21)OCCC#N [Compound I-202, 3-((R)-1-(5-fluoro-2-methoxyphenyl)-2-(5-methyl-2,4-dioxo-3-((R)-1-oxo-1-(pyrrolidin-1-yl)propan-2-yl)-6-(2H-1,2,3-triazol-2-yl)-3,4-dihydrothieno[2,3-d]pyrimidin-1(2H)-yl)ethoxy)propanenitrile] | D (<25% control of wheat septoria leaf blotch) | A (from 70% to 84% control of Asian soybean rust) | > 50 | A (from 70% to 84% control of wheat leaf rust) | 0.08 (≈ 0.134 µM) | ≥ 50 | AA (≥85% control of cucumber powdery mildew) | 2 (≈ 3.36 µM) | 0.4 (≈ 0.672 µM) | ≥ 0.4 | 2 (≈ 3.36 µM) | A (from 70% to 84% control of barley powdery mildew) | D (<25% control of wheat fusarium head blight) | 0.4 (≈ 0.672 µM)
CCNC(=O)C(C)(C)n1c(=O)c2c(C)c(-n3nccn3)sc2n(C[C@H](OCCC#N)c2ccccc2OC)c1=O [Compound I-208, (R)-2-(1-(2-(2-cyanoethoxy)-2-(2-methoxyphenyl)ethyl)-5-methyl-2,4-dioxo-6-(2H-1,2,3-triazol-2-yl)-1,4-dihydrothieno[2,3-d]pyrimidin-3 (2H)-yl)-N-ethyl-2-methylpropanamide] | AA (≥85% control of wheat septoria leaf blotch) | AA (≥85% control of Asian soybean rust) | > 50 | AA (≥85% control of wheat leaf rust) | 0.4 (≈ 0.707 µM) | > 50 | AA (≥85% control of cucumber powdery mildew) | 2 (≈ 3.54 µM) | 0.4 (≈ 0.707 µM) | 0.4 (≈ 0.707 µM) | 2 (≈ 3.54 µM) | AA (≥85% control of barley powdery mildew) | C (from 25 to 49% control of wheat fusarium head blight) | 0.08 (≈ 0.141 µM)
COc1ccc(F)cc1[C@H](Cn1c(=O)n(C(C)(C)C(=O)NC(C)C)c(=O)c2c(C)c(-n3nccn3)sc21)OCC#N [Compound I-210, (R)-2-(1-(2-(cyanomethoxy)-2-(5-fluoro-2-methoxyphenyl)ethyl)-5-methyl-2,4-dioxo-6-(2H-1,2,3-triazol-2-yl)-1,4-dihydrothieno[2,3-d]pyrimidin-3 (2H)-yl)-N-isopropyl-2-methylpropanamide] | AA (≥85% control of wheat septoria leaf blotch) | AA (≥85% control of Asian soybean rust) | > 50 | A (from 70% to 84% control of wheat leaf rust) | 2 (≈ 3.43 µM) | > 50 | AA (≥85% control of cucumber powdery mildew) | 0.4 (≈ 0.685 µM) | 0.4 (≈ 0.685 µM) | 0.4 (≈ 0.685 µM) | ≥ 0.4 | AA (≥85% control of barley powdery mildew) | C (from 25 to 49% control of wheat fusarium head blight) | 0.08 (≈ 0.137 µM)
COc1ccc(F)cc1[C@H](Cn1c(=O)n(C(C)(C)C(=O)NC(C)C)c(=O)c2c(C)c(-n3nccn3)sc21)OC[C@@H](C)C#N [Compound I-211, 2-(1-((R)-2-((S)-2-cyanopropoxy)-2-(5-fluoro-2-methoxyphenyl)ethyl)-5-methyl-2,4-dioxo-6-(2H-1,2,3-triazol-2-yl)-1,4-dihydrothieno[2,3-d]pyrimidin-3 (2H)-yl)-N-isopropyl-2-methylpropanamide] | AA (≥85% control of wheat septoria leaf blotch) | AA (≥85% control of Asian soybean rust) | > 50 | A (from 70% to 84% control of wheat leaf rust) | 0.08 (≈ 0.131 µM) | > 50 | AA (≥85% control of cucumber powdery mildew) | 0.08 (≈ 0.131 µM) | 0.4 (≈ 0.654 µM) | 0.4 (≈ 0.654 µM) | 0.08 (≈ 0.131 µM) | AA (≥85% control of barley powdery mildew) | C (from 25 to 49% control of wheat fusarium head blight) | 0.08 (≈ 0.131 µM)
COc1ccc(F)cc1[C@H](Cn1c(=O)n(C(C)(C)C(=O)NC(C)C)c(=O)c2c(C)c(-n3nccn3)sc21)OC[C@H](C)C#N [Compound I-212, 2-(1-((R)-2-((R)-2-cyanopropoxy)-2-(5-fluoro-2-methoxyphenyl)ethyl)-5-methyl-2,4-dioxo-6-(2H-1,2,3-triazol-2-yl)-1,4-dihydrothieno[2,3-d]pyrimidin-3 (2H)-yl)-N-isopropyl-2-methylpropanamide] | AA (≥85% control of wheat septoria leaf blotch) | AA (≥85% control of Asian soybean rust) | > 50 | AA (≥85% control of wheat leaf rust) | 0.08 (≈ 0.131 µM) | > 50 | AA (≥85% control of cucumber powdery mildew) | ≥ 0.08 | 0.4 (≈ 0.654 µM) | 0.4 (≈ 0.654 µM) | 0.08 (≈ 0.131 µM) | AA (≥85% control of barley powdery mildew) | B (from 50 to 69% control of wheat fusarium head blight) | 0.08 (≈ 0.131 µM)
COc1ccc(F)cc1[C@H](Cn1c(=O)n(C(C)(C)C(=O)NC(C)C)c(=O)c2c(C)c(-n3nccn3)sc21)OCC(C)(C)C#N [Compound I-213, (R)-2-(1-(2-(2-cyano-2-methylpropoxy)-2-(5-fluoro-2-methoxyphenyl)ethyl)-5-methyl-2,4-dioxo-6-(2H-1,2,3-triazol-2-yl)-1,4-dihydrothieno[2,3-d]pyrimidin-3 (2H)-yl)-N-isopropyl-2-methylpropanamide] | AA (≥85% control of wheat septoria leaf blotch) | B (from 50 to 69% control of Asian soybean rust) | > 50 | B (from 50 to 69% control of wheat leaf rust) | 0.08 (≈ 0.128 µM) | > 50 | AA (≥85% control of cucumber powdery mildew) | ≥ 0.08 | 0.4 (≈ 0.639 µM) | 0.4 (≈ 0.639 µM) | 0.4 (≈ 0.639 µM) | A (from 70% to 84% control of barley powdery mildew) | B (from 50 to 69% control of wheat fusarium head blight) | 0.08 (≈ 0.128 µM)
